{"source": "patent US20080292619A1", "about": "“Pharmaceutical Composition Containing Meltrin Antagonist” (MOCHIDA PHARMACEUTICAL CO., LTD., priority 2004, published 2008)", "data": [{"tested_on": "human meltrin α RNA", "test": "Suppression of human meltrin α expression by antisense compound in RD cell (real time PCR)", "format": "cell-based", "conditions": "50 nM; RD cell; corrected by GAPDH", "experimental": "(§1) First, RD cell (ATCC) was suspended in DMEM containing 10% fetal bovine serum (FBS, SIGMA), and the suspension was inoculated in 6 well culture plate at 2.5×10^5 cells/well/2 mL. After incubating overnight at 37° C. in the presence of 5% CO2, the cells were washed twice with serum-free DMEM, and Opti-MEM medium (GIBCO) was added at 800 μL/well.\n(§2) Gene transfection reagent Lipofectin (Invitrogen) was diluted with Opti-MEM to 20 μg/mL, and the dilution was allowed to stand at room temperature for 30 minutes. Next, the antisense oligodeoxynucleotide synthesized as described above was heated at 90° C. for 3 minutes, and after quenching on ice, diluted with Opti-MEM to a concentration 10 times higher than the final concentration. Equal amounts of the Lipofectin in Opti-MEM and the antisense oligo DNA in Opti-MEM were mixed, and the mixture was incubated at room temperature for 15 minutes and added to 6 well plate at 200 μL/well.\n(§3) The culture was incubated at 37° C. for 4 hours in the presence of 5% CO2, and the culture supernatant containing the Lipofectin was removed. The cells were washed twice with serum-free DMEM, and after adding 1 mL/well of Opti-MEM and incubating for 18 hours at 37° C. in the presence of 5% CO2, the cells were subjected to the measurement of the level of expression of meltrin α RNA.\n(§4) After the washing, RNA was isolated from the cell by using RNA isolation kit (RNeasy Micro Kit, QIAGEN) according to the protocol of the kit, and RNA concentration was determined by measuring absorbance at a wavelength of 260 nm with a spectrophotometer (Nano prop, LMS Co., Ltd.) (1OD=40 μg/mL). After the quantitation, the RNA was prepared to a concentration of 0.1 μg/μL by using DEPC-treated water.\n(§5) 0.35 μg of the isolated RNA, and 3.5 μL of 10× TaqMan buffer, 7.7 μL of 25 mM MgCl2, 7.0 μL of 2.5 mM each dNTP Mix, 1.75 μL of 50 μM Random Hexamers, 0.7 μL of 20 U/μL RNase inhibitor, and 0.9 μL of 50 U/μL MultiScribe Reverse Transcriptase (all purchased from Applied Biosystems) were mixed, and water was added to make up the total volume to 35 μL. This solution was maintained at 25° C. for 10 minutes, at 48° C. for 30 minutes, and at 95° C. for 5 minutes, and reverse transcription was conducted to synthesize cDNA.\n(§6) A solution in total volume of 20 μL containing 10 μL of TaqMan Universal PCR Master Mix, 0.4 μL of 10 μM TaqMan MGB Probe (sequence 5′FAM-caccgaaggacaatccca-MGB-3′: Applied Biosystems), 0.1 μL of 50 μM Forward primer (sequence ggaagccgccagattcct) for detecting meltrin α, 0.1 μL of 50 μM Reverse primer (sequence […]) for detecting meltrin α (all purchased from Sigma-Genosys), 5 μL of the cDNA solution of (3), and 4.4 μL of water was prepared, and after maintaining the solution at 50° C. for 2 minutes and at 95° C. for 10 minutes, PCR was conducted by repeating 40 cycles of 95° C. for 15 seconds and 60° C. for 1 minute in ABI Prism 7000.\n(§7) The amount of the human meltrin α RNA was measured by conducting real time PCR by using the plasmid containing the cDNA coding for the human meltrin α for the template to generate the standard curve, and calculating RNA copy number of the meltrin α in each sample. The level of expression of GAPDH was also determined by using a primer and probe set for real time PCR of human GAPDH (Pre-Developed TaqMan Assay Reagents Human GAPDH (20×) (Cat# 4310884E, Applied Biosystems).\n(§8) The results of the real time PCR of the meltrin α was corrected by the level of expression of the GAPDH to calculate the suppression rate. […]", "values": [{"substance": "H004: ctggcacaagccagccttga (CTGGCACAAGCCAGCCTTGA; antisense; DNA, all phosphorothioate, methylation of C not given here)", "suppression rate of expression, 50 nM": "+ (“+” when the suppression rate was at least 30%)"}, {"substance": "H006: tttccccccgtgtgtgtgcg (TTTCCCCCCGTGTGTGTGCG; antisense; DNA, all phosphorothioate, methylation of C not given here)", "suppression rate of expression, 50 nM": "++ (“++” when the suppression rate was at least 50%)"}, {"substance": "H008: gccgccgctgagctcttcta (GCCGCCGCTGAGCTCTTCTA; antisense; DNA, all phosphorothioate, methylation of C not given here)", "suppression rate of expression, 50 nM": "++ (“++” when the suppression rate was at least 50%)"}, {"substance": "H009: agccctcgcgcacggcccgc (AGCCCTCGCGCACGGCCCGC; antisense; DNA, all phosphorothioate, methylation of C not given here)", "suppression rate of expression, 50 nM": "+ (“+” when the suppression rate was at least 30%)"}, {"substance": "H010: cctcggcgagtcagctccgg (CCTCGGCGAGTCAGCTCCGG; antisense; DNA, all phosphorothioate, methylation of C not given here)", "suppression rate of expression, 50 nM": "++ (“++” when the suppression rate was at least 50%)"}, {"substance": "H011: gcgaccggagggatttcctg (GCGACCGGAGGGATTTCCTG; antisense; DNA, all phosphorothioate, methylation of C not given here)", "suppression rate of expression, 50 nM": "+ (“+” when the suppression rate was at least 30%)"}, {"substance": "H013: ctgcaccatcccacgcgggc (CTGCACCATCCCACGCGGGC; antisense; DNA, all phosphorothioate, methylation of C not given here)", "suppression rate of expression, 50 nM": "+ (“+” when the suppression rate was at least 30%)"}, {"substance": "H015: cggccttcagtgcagcagct (CGGCCTTCAGTGCAGCAGCT; antisense; DNA, all phosphorothioate, methylation of C not given here)", "suppression rate of expression, 50 nM": "++ (“++” when the suppression rate was at least 50%)"}, {"substance": "H016: gggcgcgctgccatcgtcgc (GGGCGCGCTGCCATCGTCGC; antisense; DNA, all phosphorothioate, methylation of C not given here)", "suppression rate of expression, 50 nM": "+ (“+” when the suppression rate was at least 30%)"}, {"substance": "H018: cagggcgagcaggagggcgc (CAGGGCGAGCAGGAGGGCGC; antisense; DNA, all phosphorothioate, methylation of C not given here)", "suppression rate of expression, 50 nM": "+ (“+” when the suppression rate was at least 30%)"}]}, {"tested_on": "human meltrin α RNA", "test": "Suppression of human meltrin α expression by antisense compound in RD cell (real time PCR)", "format": "cell-based", "conditions": "200 nM; RD cell; corrected by GAPDH", "experimental": "as §1, §2, §3, §4, §5, §6, §7, §8", "values": [{"substance": "H001: gactaggaagagcgttagtg (GACTAGGAAGAGCGTTAGTG; antisense; DNA, all phosphorothioate, methylation of C not given here)", "suppression rate of expression, 200 nM": "+ (“+” when the suppression rate was at least 30%)"}, {"substance": "H002: actgtccgagttggcccggg (ACTGTCCGAGTTGGCCCGGG; antisense; DNA, all phosphorothioate, methylation of C not given here)", "suppression rate of expression, 200 nM": "++ (“++” when the suppression rate was at least 50%)"}, {"substance": "H003: ccgttgcaataaatgagcaa (CCGTTGCAATAAATGAGCAA; antisense; DNA, all phosphorothioate, methylation of C not given here)", "suppression rate of expression, 200 nM": "+ (“+” when the suppression rate was at least 30%)"}, {"substance": "H004: ctggcacaagccagccttga (CTGGCACAAGCCAGCCTTGA; antisense; DNA, all phosphorothioate, methylation of C not given here)", "suppression rate of expression, 200 nM": "+++ (“+++” when the suppression rate was at least 70%)"}, {"substance": "H006: tttccccccgtgtgtgtgcg (TTTCCCCCCGTGTGTGTGCG; antisense; DNA, all phosphorothioate, methylation of C not given here)", "suppression rate of expression, 200 nM": "++ (“++” when the suppression rate was at least 50%)"}, {"substance": "H008: gccgccgctgagctcttcta (GCCGCCGCTGAGCTCTTCTA; antisense; DNA, all phosphorothioate, methylation of C not given here)", "suppression rate of expression, 200 nM": "++ (“++” when the suppression rate was at least 50%)"}, {"substance": "H009: agccctcgcgcacggcccgc (AGCCCTCGCGCACGGCCCGC; antisense; DNA, all phosphorothioate, methylation of C not given here)", "suppression rate of expression, 200 nM": "+++ (“+++” when the suppression rate was at least 70%)"}, {"substance": "H010: cctcggcgagtcagctccgg (CCTCGGCGAGTCAGCTCCGG; antisense; DNA, all phosphorothioate, methylation of C not given here)", "suppression rate of expression, 200 nM": "++ (“++” when the suppression rate was at least 50%)"}, {"substance": "H011: gcgaccggagggatttcctg (GCGACCGGAGGGATTTCCTG; antisense; DNA, all phosphorothioate, methylation of C not given here)", "suppression rate of expression, 200 nM": "++ (“++” when the suppression rate was at least 50%)"}, {"substance": "H012: gccgagcggggccgggcgtc (GCCGAGCGGGGCCGGGCGTC; antisense; DNA, all phosphorothioate, methylation of C not given here)", "suppression rate of expression, 200 nM": "+++ (“+++” when the suppression rate was at least 70%)"}, {"substance": "H013: ctgcaccatcccacgcgggc (CTGCACCATCCCACGCGGGC; antisense; DNA, all phosphorothioate, methylation of C not given here)", "suppression rate of expression, 200 nM": "++ (“++” when the suppression rate was at least 50%)"}, {"substance": "H014: ctcgggcccggcggcgagcg (CTCGGGCCCGGCGGCGAGCG; antisense; DNA, all phosphorothioate, methylation of C not given here)", "suppression rate of expression, 200 nM": "+++ (“+++” when the suppression rate was at least 70%)"}, {"substance": "H015: cggccttcagtgcagcagct (CGGCCTTCAGTGCAGCAGCT; antisense; DNA, all phosphorothioate, methylation of C not given here)", "suppression rate of expression, 200 nM": "+ (“+” when the suppression rate was at least 30%)"}, {"substance": "H016: gggcgcgctgccatcgtcgc (GGGCGCGCTGCCATCGTCGC; antisense; DNA, all phosphorothioate, methylation of C not given here)", "suppression rate of expression, 200 nM": "++ (“++” when the suppression rate was at least 50%)"}, {"substance": "H017: gggcgggggacacgggcagc (GGGCGGGGGACACGGGCAGC; antisense; DNA, all phosphorothioate, methylation of C not given here)", "suppression rate of expression, 200 nM": "++ (“++” when the suppression rate was at least 50%)"}, {"substance": "H018: cagggcgagcaggagggcgc (CAGGGCGAGCAGGAGGGCGC; antisense; DNA, all phosphorothioate, methylation of C not given here)", "suppression rate of expression, 200 nM": "++ (“++” when the suppression rate was at least 50%)"}, {"substance": "H019: ggcgcgagcagagcaccggc (GGCGCGAGCAGAGCACCGGC; antisense; DNA, all phosphorothioate, methylation of C not given here)", "suppression rate of expression, 200 nM": "++ (“++” when the suppression rate was at least 50%)"}, {"substance": "H020: tcacccctcgggcctcgcag (TCACCCCTCGGGCCTCGCAG; antisense; DNA, all phosphorothioate, methylation of C not given here)", "suppression rate of expression, 200 nM": "++ (“++” when the suppression rate was at least 50%)"}, {"substance": "H021: tcttccttggttccataagc (TCTTCCTTGGTTCCATAAGC; antisense; DNA, all phosphorothioate, methylation of C not given here)", "suppression rate of expression, 200 nM": "+ (“+” when the suppression rate was at least 30%)"}, {"substance": "H023: ggtccccactccgaacagag (GGTCCCCACTCCGAACAGAG; antisense; DNA, all phosphorothioate, methylation of C not given here)", "suppression rate of expression, 200 nM": "+ (“+” when the suppression rate was at least 30%)"}, {"substance": "H026: gtcgaatattcagcacttct (GTCGAATATTCAGCACTTCT; antisense; DNA, all phosphorothioate, methylation of C not given here)", "suppression rate of expression, 200 nM": "+ (“+” when the suppression rate was at least 30%)"}, {"substance": "H027: ttctttgctttcccgttgta (TTCTTTGCTTTCCCGTTGTA; antisense; DNA, all phosphorothioate, methylation of C not given here)", "suppression rate of expression, 200 nM": "+ (“+” when the suppression rate was at least 30%)"}, {"substance": "H028: ctttccagatttatgatcag (CTTTCCAGATTTATGATCAG; antisense; DNA, all phosphorothioate, methylation of C not given here)", "suppression rate of expression, 200 nM": "+ (“+” when the suppression rate was at least 30%)"}, {"substance": "H029: tggcaatgagaccttcattt (TGGCAATGAGACCTTCATTT; antisense; DNA, all phosphorothioate, methylation of C not given here)", "suppression rate of expression, 200 nM": "+ (“+” when the suppression rate was at least 30%)"}, {"substance": "H030: gtgggtttccgtgaaactgc (GTGGGTTTCCGTGAAACTGC; antisense; DNA, all phosphorothioate, methylation of C not given here)", "suppression rate of expression, 200 nM": "+ (“+” when the suppression rate was at least 30%)"}, {"substance": "H031: tcagtaccgtcttgcagata (TCAGTACCGTCTTGCAGATA; antisense; DNA, all phosphorothioate, methylation of C not given here)", "suppression rate of expression, 200 nM": "+ (“+” when the suppression rate was at least 30%)"}]}]}
